The text below walks through data of patent US7718808B2, “Thiazole derivatives” (Kyowa Hakko Kirin Co., Ltd., priority 2003, dated 2010).

In series [1] the test system is MPTP-treated common marmoset. Description: Effect in Parkinson's disease model (MPTP-treated common marmoset), motor disability score. The series is classed as in vivo. The note with it: oral administration, 10 mg/kg; MPTP-treated common marmosets; scored at 30 minute intervals for 8 hours. From the text:
Parkinson's disease is a disorder based on the degeneration and lack of dopaminergic neurons in the nigro-striatal pathway. In the primates, treatment with a dopamine neurotoxin, that is MPTP, causes selective degeneration and lack of the dopaminergic neurons in the nigro-striatal pathway and causes a symptom such as akinesia and muscular rigidity. The MPTP-treated primate is known as a Parkinson's disease model (Proceedings of the National Academy of Science USA, Vol. 80, p. 4546, 1983). Also, common marmoset belongs to Anthropoidea, and is known to have parkinsonism caused by MPTP like others of Anthropoidea (Neuroscience Letter, Vol. 57, p. 37, 1985).
The experiment was carried out using four male and female common marmosets of 2 or 3 years old (body weight, 300 to 375 g, by Nippon Clea) per group. […] The motor disability of the animals before the administration of the test compound was scored, and this was compared with the motor disability score after orally administration of the test compound (Compound 1) in a dose of 10 mg/kg. As, the parkinsonian symptoms, the motor disabilities were scored at intervals of 30 minutes for 8 hours, by observation through a one-way viewing window. The spontaneous locomotor activity was measured at intervals of 30 minutes for 12 hours by a computer-controlled automatic measuring apparatus. […]

The target of series [2] is T1, Rat Adenosine A2A Receptor (Rattus norvegicus, UniProt P30543).
T1 construct: tissue Nippon SLC (animals); host or cells: rat (SD) corpus striatum membrane homogenate
In words: Adenosine A2A receptor binding test (3H-CGS21680 binding, rat corpus striatum). The note with it: test compound 10^−7 mol/L, 25° C., 120 minutes, read-out: Rat Adenosine A2A Receptor Binding Inhibition rate (%) (10^−7 mol/L). Here is the method: This test was carried but in a similar manner to a Bruns et al's method (Molecular Pharmacology, Vol. 29, p. 331, 1986).
Corpus striatum of rats (SD rat, by Nippon SLC) was suspended in 50 mL of an ice-cooled 50 mmol/L tris(hydroxymethyl)aminomethane hydrochloride (Tris-HCl) buffer (pH 7.7) using a polytron homogenizer (by Kinematica). The resulting homogenate was centrifuged (48,000×g, 20 minutes), and the resulting precipitate was again suspended by adding the same amount of a 50 mmol/L Tris-HCl buffer, followed by centrifugation under the same condition. The resulting final precipitate was suspended by adding a 50 mmol/L Tris-HCl buffer [containing 10 mmol/L magnesium chloride, adenosine deaminase 0.02 units/mg tissue (by Sigma)] so that the tissue concentration was 5 mg (wet weight)/mL.
To 100 μL of the above purified tissue suspension, were added 80 μL (final concentration […]) of tritium-labeled CGS-21680 {^3H-2-[p-(2-carboxyethyl)phenethylamino]-5′-(N-ethylcarboxamido)-adenosine: 40 curies/mmol; by New England Nuclear [The Journal of Pharmacology and Experimental Therapeutics, Vol. 251, p. 888, 1989]} and 20 μL of a test compound solution (10^−7 mol/L; a solution of a test compound in DMSO was diluted with Tris-HCl buffer). The resulting mixture was allowed to stand at 25° C. for 120 minutes, followed by rapid suction filtration through a glass fiber paper filter (GF/C; by Whatman). The filter was immediately washed three times with 200 μL of an ice-cooled 50 mmol/L Tris-HCl buffer. The glass fiber paper filter was transferred into a vial, Microscinti (by Perkin Elmer) was added thereto, and the radioactivity level was measured with Topcount (by Perkin Elmer).
The inhibition rate of the test compound to the adenosine A2A receptor binding (^3H-CGS21680 binding) was calculated according to the following formula.
Amount of total binding means the ^3H-CGS21680 binding radioactivity content in the absence of the test compound. Amount of non-specific binding means the ^3H-CGS21680 binding radioactivity content in the presence of 100 μmol/L cyclopentyladenosine (CPA; by Sigma). Amount of binding in the presence of test compound means the ^3H-CGS21680 binding radioactivity content in the presence of 10^−7 mol/L of the test compound.

T1 sequence (P30543 whole entry): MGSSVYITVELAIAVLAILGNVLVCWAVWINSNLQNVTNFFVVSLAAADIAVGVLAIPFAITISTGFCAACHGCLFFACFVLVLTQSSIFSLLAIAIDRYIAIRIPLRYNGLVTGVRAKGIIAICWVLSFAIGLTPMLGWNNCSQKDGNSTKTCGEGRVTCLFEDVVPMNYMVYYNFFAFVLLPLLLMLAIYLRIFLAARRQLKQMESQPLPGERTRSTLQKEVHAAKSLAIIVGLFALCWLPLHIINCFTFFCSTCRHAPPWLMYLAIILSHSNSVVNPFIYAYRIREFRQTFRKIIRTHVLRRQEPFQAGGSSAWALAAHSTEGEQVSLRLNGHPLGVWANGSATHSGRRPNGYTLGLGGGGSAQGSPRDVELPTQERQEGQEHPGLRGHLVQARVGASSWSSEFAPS

For the compound `O=C(Nc1nc(-c2ccco2)c(-c2ccncc2)s1)c1ccncc1` [Compound 1, N-[4-(2-Furyl)-5-(4-pyridyl)thiazol-2-yl]pyridine-4-carboxamide], in series [1], the “remission of the parkinsonian symptoms (motor disability score before vs after administration)” value is “effective for remission of the parkinsonian symptoms”. Moreover, the inhibition at 0.1 µM in series [2] amounted to 90%.

`CC(C)n1nc(-c2sc(NC(=O)c3ccncc3)nc2-c2ccco2)ccc1=O` [Compound 131, N-[4-(2-Furyl)-5-(1-isopropyl-6-oxo-1,6-dihydropyridazin-3-yl)thiazol-2-yl]pyridine-4-carboxamide] had a melting point of 190 to 194 °C. For the same compound, the inhibition at 0.1 µM in series [2] amounted to 99%.

The compound `O=C(Nc1nc(-c2ccco2)c(C(=O)c2ccccc2)s1)c1ccc(=O)[nH]c1` [Compound 149, N-[5-Benzoyl-4-(2-furyl)thiazol-2-yl]-2-oxo-1,2-dihydropyridine-5-carboxamide] displayed a melting point above 300 °C. Moreover, in series [2], the inhibition at 0.1 µM amounted to 91%.

`O=C(Nc1nc(-c2ccco2)c(C(=O)c2ccccn2)s1)c1ccncc1` [Compound 187, N-[4-(2-Furyl)-5-(pyridin-2-ylcarbonyl)thiazol-2-yl]pyridine-4-carboxamide] registered a melting point of 218 to 227 °C. In addition, in series [2], the inhibition at 0.1 µM worked out at 86%.

Turning to `O=C(c1ccccn1)c1sc(NC(=O)C2CC2)nc1-c1ccco1` [Compound 191, N-[4-(2-Furyl)-5-(pyridin-2-ylcarbonyl)thiazol-2-yl]cyclopropanecarboxamide], the melting point was in the range of 191 to 192 °C. Further, the inhibition at 0.1 µM in series [2] amounted to 98%.

In the case of `N#Cc1ccc(C(=O)Nc2nc(-c3ccco3)c(C(=O)c3ccccn3)s2)cc1` [Compound 206, 4-Cyano-N-[4-(2-furyl)-5-(pyridin-2-ylcarbonyl)thiazol-2-yl]benzamide], the melting point fell in the range of 232 to 235 °C. The inhibition at 0.1 µM in series [2] stood at 95%.

In the case of `O=C(Nc1nc(-c2ccco2)c(C(=O)c2ccccn2)s1)c1ccco1` [Compound 234, N-[4-(2-Furyl)-5-(pyridin-2-ylcarbonyl)thiazol-2-yl]furan-2-carboxamide], the melting point is 184 to 185 °C. Also, in series [2], the inhibition at 0.1 µM was 100%.

Regarding `O=C(Nc1nc(-c2ccco2)c(C(=O)c2nccs2)s1)c1ccncc1` [Compound 348, N-[4-(2-Furyl)-5-(thiazol-2-ylcarbonyl)thiazol-2-yl]pyridine-4-carboxamide], the melting point was 228 to 240 °C. In series [2], the inhibition at 0.1 µM stood at 100%.

Turning to `O=C(Nc1nc(-c2ccco2)c(C(=O)C2CCOCC2)s1)c1ccncc1` [Compound 455, N-[4-(2-Furyl)-5-(tetrahydropyran-4-ylcarbonyl)thiazol-2-yl]pyridine-4-carboxamide], the melting point was in the range of 202 to 209 °C. Further, in series [2], the inhibition at 0.1 µM worked out at 100%.

Regarding `O=C(Nc1nc(-c2ccco2)c(C(=O)C2CCOCC2)s1)C1CC1` [Compound 456, N-[4-(2-Furyl)-5-(tetrahydropyran-4-ylcarbonyl)thiazol-2-yl]cyclopropanecarboxamide], the melting point was 182 to 183 °C. The inhibition at 0.1 µM in series [2] amounted to 94%.

In turn, `COc1cccc(C(=O)Nc2nc(-c3ccco3)c(C(=O)C3CCOCC3)s2)c1` [Compound 462, N-[4-(2-Furyl)-5-(tetrahydropyran-4-ylcarbonyl)thiazol-2-yl]-3-methoxybenzamide] came in with a melting point of 198 to 200 °C. The inhibition at 0.1 µM in series [2] was determined as 99%.

In turn, `O=C(Nc1nc(-c2ccco2)c(C(=O)C2CCOCC2)s1)c1ccc(F)cc1` [Compound 468, 4-Fluoro-N-[4-(2-furyl)-5-(tetrahydropyran-4-ylcarbonyl)thiazol-2-yl]benzamide] yielded a melting point of 131 to 132 °C. In series [2], the inhibition at 0.1 µM turned out to be 93%.

`O=C(Nc1nc(-c2ccco2)c(C(=O)C2CCOCC2)s1)c1ccc(Cl)nc1` [Compound 502, 2-Chloro-N-[4-(2-furyl)-5-(tetrahydropyran-4-ylcarbonyl)thiazol-2-yl]pyridine-5-carboxamide] yielded a melting point of 233 to 235 °C. Further, in series [2], the inhibition at 0.1 µM amounted to 90%.

On to `Cc1ccc(C(=O)Nc2nc(-c3ccco3)c(C(=O)C3CCOCC3)s2)cn1` [Compound 504, N-[4-(2-Furyl)-5-(tetrahydropyran-4-ylcarbonyl)thiazol-2-yl]-2-methylpyridine-5-carboxamide], for which the inhibition at 0.1 µM in series [2] turned out to be 100%.

`O=C(Nc1nc(-c2ccco2)c(C(=O)C2CCOCC2)s1)c1ccco1` [Compound 511, N-[4-(2-Furyl)-5-(tetrahydropyran-4-ylcarbonyl)thiazol-2-yl]furan-2-carboxamide] displayed a melting point of 196 to 198 °C. Moreover, the inhibition at 0.1 µM in series [2] came to 88%.

`N#Cc1ccc(C(=O)Nc2nc(-c3ccco3)c(C(=O)C3CCOCC3)s2)o1` [Compound 515, 5-Cyano-N-[4-(2-furyl)-5-(tetrahydropyran-4-ylcarbonyl)thiazol-2-yl]furan-2-carboxamide] came in with a melting point of 222 to 223 °C. Further, in series [2], the inhibition at 0.1 µM amounted to 95%.

Regarding `O=C(CN1CCOCC1)Nc1nc(-c2ccco2)c(C(=O)C2CCOCC2)s1` [Compound 558, N-[4-(2-Furyl)-5-(tetrahydropyran-4-ylcarbonyl)thiazol-2-yl]-2-morpholinoacetamide], the inhibition at 0.1 µM in series [2] came to 92%.
